pIC50: −log10 of the molar value. Where two headings read alike, the source gives them in different places.
Legend:
[1] = target: T1, desmolase (Bos taurus, UniProt P00189); test: Inhibition of desmolase (mitochondrial fraction of bovine adrenal cortex, 14C-isocaproic acid release from (26-14C)-cholesterol); assay type: biochemical
T1 construct: The mitochondrial fraction of bovine adrenal cortex provided the source of desmolase; from tissue; host or cells: bovine adrenal cortex, mitochondrial fraction
T1 sequence (P00189 40-520): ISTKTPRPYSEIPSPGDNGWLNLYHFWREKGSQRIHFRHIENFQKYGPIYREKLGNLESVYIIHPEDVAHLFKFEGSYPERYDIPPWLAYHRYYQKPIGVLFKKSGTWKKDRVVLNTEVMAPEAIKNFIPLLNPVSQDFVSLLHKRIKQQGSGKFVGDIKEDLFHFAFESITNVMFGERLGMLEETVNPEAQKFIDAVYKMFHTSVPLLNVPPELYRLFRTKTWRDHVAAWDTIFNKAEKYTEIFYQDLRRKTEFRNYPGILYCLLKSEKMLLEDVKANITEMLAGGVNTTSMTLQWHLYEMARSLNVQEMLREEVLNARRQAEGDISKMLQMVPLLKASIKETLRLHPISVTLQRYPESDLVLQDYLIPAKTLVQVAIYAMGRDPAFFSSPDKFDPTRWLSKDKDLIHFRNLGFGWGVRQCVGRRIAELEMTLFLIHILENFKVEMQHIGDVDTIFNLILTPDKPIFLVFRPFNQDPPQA

[2] = Stability of injection solutions at pH 3.5-4; assay type: physicochemical
Procedure: This went into solution at low pH very nicely. M NaOH was added to pH 3.5-4. The volume was made up using deionized water.

[3] = test system: central nervous system; test: Behavioral observations (Irwin observational assessment); conditions: for Passivity: rating 0-4, 20-30 minutes after injection
[4] = test system: Rat mammary tumours induced with MNU (N-methyl-N-nitrosourea); test: Tests in vivo on tumour regression, MNU-induced rat mammary tumours; set-up: species or system rat (Ludwig Wistar/Ola, WF/ICRF/Ola, female); conditions: for percentage of tumours which regress (in words): 42 days; for percentage of tumours which regress (in words) / No. tumours grown by more than 100% / No. tumours grown by up to 100% / No. tumours regressed but by less than 50% / No. tumours regressed by 50% or more / No. tumours with no change: 0.165 millimoles/kg/day s.c.; for No. tumours grown by more than 100% / No. tumours grown by up to 100% / No. tumours regressed but by less than 50% / No. tumours regressed by 50% or more / No. tumours with no change: after 6 weeks (42 days)
Procedure: Unlike DMBA (7,12-dimethylbenz[a]anthracene) induced tumours, MNU tumours may be primarily oestrogen-, rather than prolactin-dependent, see Pruitt, Rose and Bryan, Proc. Ann. Cancer Res. 20, 87, (1979).
Using the method of Williams et al., supra, mammary tumours were induced in virgin female rats of the inbred strain Ludwig Wistar/Ola (WF/ICRF/Ola) by intravenous administration of MNU. MNU was dissolved in 0.9% aqueous sodium chloride solution acidified to pH 5 with acetic acid. Starting at age 50 days, each rat received 3 injections at 14 day intervals via the tail vein (5 mg MNU/100 g body weight/injection; injection volume of 0.5 ml/rat). Animals were assigned to experimental groups at 125-140 days after the first injection, with 12 animals in each group. At this time they bore from 1-3 tumours per animal.
Controls received equivalent injections of DMSO alone.
Results were expressed in terms of the percentage of initial tumour volume for each tumour after 42 day, treatment.

[5] = test system: central nervous system; test: Studies on anticonvulsant properties, pentylenetetrazol-induced convulsions; conditions: for prevention of pentylenetetrazol-induced convulsions: pentylenetetrazol 50 mg/kg
[6] = test system: central nervous system; test: Rotating rod experiments (rotarod test), drug-induced ataxia; conditions: for time of peak effect after injection: i.p.
[7] = test system: desmolase; conditions: background; cited from earlier work
[8] = target: T2, aromatase (Homo sapiens, UniProt P11511); test: Inhibition of aromatase (microsomal fraction of human placental tissue, 3H2O release from (1,2-3H) testosterone); assay type: biochemical
T2 construct: Aromatase was obtained from the microsomal fraction of human placental tissue; from tissue; host or cells: human placenta, microsomal fraction
T2 sequence (P11511 1-503): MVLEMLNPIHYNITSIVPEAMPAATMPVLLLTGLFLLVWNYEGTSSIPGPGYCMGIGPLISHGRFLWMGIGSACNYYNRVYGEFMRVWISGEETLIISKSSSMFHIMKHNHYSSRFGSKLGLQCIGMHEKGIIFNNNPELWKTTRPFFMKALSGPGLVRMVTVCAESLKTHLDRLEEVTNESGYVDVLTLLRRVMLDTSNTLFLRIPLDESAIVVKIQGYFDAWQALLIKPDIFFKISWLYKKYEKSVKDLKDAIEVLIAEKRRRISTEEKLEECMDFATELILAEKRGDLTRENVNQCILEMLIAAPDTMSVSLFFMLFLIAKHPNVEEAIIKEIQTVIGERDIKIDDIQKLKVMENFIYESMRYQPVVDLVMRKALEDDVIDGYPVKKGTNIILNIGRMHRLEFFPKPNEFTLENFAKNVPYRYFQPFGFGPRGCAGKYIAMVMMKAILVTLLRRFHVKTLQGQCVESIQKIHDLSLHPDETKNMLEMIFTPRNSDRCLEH
Procedure: The activity of various glutarimides against the enzymes aromatase and desmolase was assayed as follows. Each compound was examined over a range of concentrations. At each concentration of inhibitor, samples were removed at three time points. The results were plotted on a graph of product released against time of incubation. The resulting linear graph was used to determine the rate of enzyme reaction at each concentration of inhibitor.
A. Desmolase The mitochondrial fraction of bovine adrenal cortex provided the source of desmolase and the method of isolation was essentially as published by R. B. Hochberg et al., Biochemistry, 13, 603 (1974). The enzyme activity was assayed using (26-^14 C)-cholesterol as substrate and measuring the ^14 C-isocaproic acid released, see R. B. Hochberg et al., supra. and V. I. Uzgiris et al., Endocrinology, 101, 89 (1977). Inhibitor compounds were added in ethanol (microliters) and an equal volume of ethanol was added to the control assay. The total volume of the assay mixture was 1.0 ml. After preincubating the assay tubes at 30° C. for 5 minutes, the reaction was started by the addition of 1 mg of mitochondrial protein. Samples were removed after 2,4 and 6 minutes of incubation and the assay completed as described.

[9] = prior art; cited from earlier work
[10] = 1.5 micromolar (3H) testosterone
[11] = compared with aminoglutethimide

With `CCC1(c2ccc(N)cc2)CCC(=O)NC1=O` (stereo not shown) [aminoglutethimide, 3-ethyl-3-(4-aminophenyl)glutarimide, reference compound] the Desmolase inhibition [1] was “+ + +”, the pIC50 ([1]; 7 micromolar (14C) cholesterol) was 4.52 and the “time after which salt precipitated from solution” value ([2]; 40 mg in 2 ml) was greater than 2 h. The Corneal reflex ([3]; 100 mg/kg i.p.) was “+”, the Flexor reflex ([3]; 100 mg/kg i.p.) was “Inc” and the Grooming ([3]; 100 mg/kg i.p.) was “+”. The Motor activity ([3]; 100 mg/kg i.p.) was “Dec”, the Righting reflex ([3]; 100 mg/kg i.p.) was “+” and the Tremors ([3]; 100 mg/kg i.p.) was “-”. For the same compound, the Twitches ([3]; 100 mg/kg i.p.) was “-”, the “corneal, righting and flexor reflexes (in words)” value ([3]; 100 mg/kg i.p.) was “Corneal, righting and flexor reflexes were still apparent” and the “sedation (in words)” value ([3]; 100 mg/kg i.p.) was “marked sedation”. The “flexor reflex (in words)” value ([3]; 100 mg/kg i.p., compared to untreated animals) was “slightly augmented”, the Passivity ([3]; 100 mg/kg i.p.) was 3 and the “sleep (in words)” value ([3]; 200 mg/kg i.p., three animals) was “all fell asleep within a few minutes of the injection”. For the same compound, the “percentage of tumours which regress (in words)” value [4] was “causes an increase in the percentage of tumours which regress”, the “No. tumours grown by more than 100%” value [4] was 5 tumours and the “No. tumours grown by up to 100%” value [4] was 2 tumours. For the same compound, the “No. tumours regressed but by less than 50%” value [4] was 3 tumours, the “No. tumours regressed by 50% or more” value [4] was 4 tumours and the “No. tumours with no change” value [4] was 0 tumours. The “prevention of pentylenetetrazol-induced convulsions” value ([5]; i.p., dose not stated) was “prevented convulsions”, the “effect on motor co-ordination (in words)” value ([6]; 100 mg/kg i.p. (Table 3)) was “pronounced effect on motor co-ordination. Most of the mice were heavily sedated and thus completely unable to maintain themselves on the rod at either speed” and the Falls/2 min ([6]; 1 r.p.m., 15 min, 100 mg/kg i.p.) was 18.5 ± 3.5 Falls/2 min. The Falls/2 min ([6]; 1 r.p.m., 30 min, 100 mg/kg i.p.) was 4.8 ± 2.0 Falls/2 min, the Falls/2 min ([6]; 3 r.p.m., 15 min, 100 mg/kg i.p.) was 27.0 ± 2.0 Falls/2 min and the “time of peak effect after injection” value [6] was 15 min. The inhibition of desmolase [7] was “also inhibits the enzyme desmolase”.
With `CCC1(c2ccnc(C(C)(C)C)c2)CCC(=O)NC1=O` (stereo not shown) [Example 4] the “IC50 Desmolase” value ([1]; 7 micromolar (14C) cholesterol) was “None” and the pIC50 [8, 10] was 4.70.
In the case of `CCC1(c2cccnc2)CCC(=O)NC1=O` (stereo not shown), the “IC50 Desmolase” value ([1]; 7 micromolar (14C) cholesterol) was “None” and the “IC50 Aromatase” value [8, 10] was “None”.
In the case of `CCC1(c2ccccc2)CCC(=O)NC1=O` (stereo not shown) [glutethimide, 3-ethyl-3-phenylglutarimide], the “sedative, hypnotic or anti-convulsive effect” value [9] is listed as “sedative and hypnotic agent”.
In the case of `CCC1(c2ccncc2)CCC(=O)NC1=O` (stereo not shown) [3-ethyl-3-(4-pyridyl)glutarimide, 3-ethyl-3-(4-pyridyl)-2,6-piperidinedione], the “Desmolase inhibition (in words)” value [1] was “inhibits aromatase but not desmolase”, the “IC50 Desmolase” value ([1]; 7 micromolar (14C) cholesterol) was “None” and the “time within which salt came out of solution” value ([2]; 50 mg) was no more than 15 min. The Abnormal gait ([3]; 200 mg/kg i.p.) was “-”, the Corneal reflex ([3]; 200 mg/kg i.p.) was “+” and the Flexor reflex ([3]; 200 mg/kg i.p.) was “+”. The Grooming ([3]; 200 mg/kg i.p.) was “-”, the Motor activity ([3]; 200 mg/kg i.p.) was “N” and the Righting reflex ([3]; 200 mg/kg i.p.) was “+”. For the same compound, the Tremors ([3]; 200 mg/kg i.p.) was “-”, the Twitches ([3]; 200 mg/kg i.p.) was “-” and the “observable differences from control mice (in words)” value ([3]; 200 mg/kg i.p.) was “no grossly observable differences from the control mice”. The Passivity ([3]; 200 mg/kg i.p.) was 0, the Abnormal gait ([3]; 300 mg/kg i.p.) was “-” and the Corneal reflex ([3]; 300 mg/kg i.p.) was “+”. The Flexor reflex ([3]; 300 mg/kg i.p.) was “+”, the Grooming ([3]; 300 mg/kg i.p.) was “+” and the Motor activity ([3]; 300 mg/kg i.p.) was “N”. For the same compound, the Righting reflex ([3]; 300 mg/kg i.p.) was “+”, the Tremors ([3]; 300 mg/kg i.p.) was “-” and the Twitches ([3]; 300 mg/kg i.p.) was “-”. The “spontaneous motor activity and struggle response (in words)” value ([3]; 300 mg/kg i.p.) was “some mice showed slight reduction in spontaneous motor activity and diminished struggle response”, the Corneal reflex ([3]; 400 mg/kg i.p.) was “+” and the Flexor reflex ([3]; 400 mg/kg i.p.) was “+”. The Grooming ([3]; 400 mg/kg i.p.) was “+”, the Motor activity ([3]; 400 mg/kg i.p.) was “Dec” and the Righting reflex ([3]; 400 mg/kg i.p.) was “+”. For the same compound, the Tremors ([3]; 400 mg/kg i.p.) was “-”, the Twitches ([3]; 400 mg/kg i.p.) was “-” and the “activity, passivity and hindlimb control (in words)” value ([3]; 400 mg/kg i.p.) was “all mice were noticeably less active, more passive and had lost some control of their hindlimbs”. The “reflexes (in words)” value ([3]; 400 mg/kg i.p.) was “All reflexes were still evident and the augmented flexor reflex, as had been noted with APG and CPZ-treated animals, was not present”, the Passivity ([3]; 400 mg/kg i.p.) was 3 and the lethality ([3]; 500 mg/kg i.p., three mice) was “lethal to the three mice tested”. For the same compound, the sedative side-effects [3, 11] was “lower than that of aminoglutethimide”, the “percentage of tumours which regress (in words)” value [4] was “shows a similar effect” and the “No. tumours grown by more than 100%” value [4] was 8 tumours. For the same compound, the “No. tumours grown by up to 100%” value [4] was 6 tumours, the “No. tumours regressed but by less than 50%” value [4] was 3 tumours and the “No. tumours regressed by 50% or more” value [4] was 9 tumours. The “No. tumours with no change” value [4] was 1 tumours, the “inhibition of tumour growth (in words)” value [4, 11] was “at least as effective an inhibitor of tumour growth in this assay as aminoglutethimide” and the “prevention of pentylenetetrazol-induced convulsions” value ([5]; 400, 300 and 200 mg/kg i.p.) was “None of these doses prevented the pentylenetetrazol-induced convulsions”. For the same compound, the anti-convulsant side-effects [5, 11] was “lower than that of aminoglutethimide”, the “effect on motor co-ordination (in words)” value ([6]; 300 mg/kg i.p.) was “little difference from the control” and the “effect on motor co-ordination (in words)” value ([6]; 400 mg/kg i.p.) was “the mice became more rigid, and while falling off the faster rod more frequently they tended to slump round the slowly rotating rod, and so stay on for a longer time”. For the same compound, the Falls/2 min ([6]; 1 r.p.m., 15 min, 300 mg/kg i.p.) was 0.6 ± 0.3 Falls/2 min, the Falls/2 min ([6]; 1 r.p.m., 15 min, 400 mg/kg i.p.) was 0.8 ± 0.4 Falls/2 min and the Falls/2 min ([6]; 1 r.p.m., 30 min, 400 mg/kg i.p.) was 0.4 ± 0.2 Falls/2 min. It also gave a Falls/2 min ([6]; 3 r.p.m., 15 min, 300 mg/kg i.p.) of 1.5 ± 0.5 Falls/2 min, a Falls/2 min ([6]; 3 r.p.m., 15 min, 400 mg/kg i.p.) of 4.8 ± 1.0 Falls/2 min and a Falls/2 min ([6]; 3 r.p.m., 30 min, 300 mg/kg i.p.) of 2.0 ± 0.2 Falls/2 min. For the same compound, the Falls/2 min ([6]; 3 r.p.m., 30 min, 400 mg/kg i.p.) was 3.6 ± 1.3 Falls/2 min and the “time of peak effect after injection” value [6] was 15 min.
In the case of `C1CCc2nnnn2CC1` [Pentylenetetrazol, pentylenetetrazol, reference compound], the convulsant activity ([5]; 50 mg/kg after NaCl vehicle, within 5 minutes) was “Increased motor activity was followed by tonic convulsions, then severe clonic extensor convulsions which caused death”.
With `CCC1(c2ccccc2)CCC(=O)N(N)C1=O` (stereo not shown) [N-aminoglutethimide, 1-amino-3-ethyl-3-phenylglutarimide] the Desmolase inhibition [1] was “+ + +”.
With `CN(C)CCCN1c2ccccc2Sc2ccc(Cl)cc21` [chlorpromazine] the “unpredictable jumping and darting movements” value ([3]; 10 mg/kg i.p., particularly on the rotarod) was 5 out of 8.
For `CCC1(c2cccc(N)c2)CCC(=O)NC1=O` (stereo not shown) [m-aminoglutethimide, 3-ethyl-3-(3-aminophenyl)glutarimide], the Desmolase inhibition [1] was “+ + +” and the Aromatase inhibition [8] was “+”.
In the case of `CCC1(c2ccccn2)CCC(=O)NC1=O` (stereo not shown) [3-ethyl-3-(2-pyridyl)-glutarimide], the “sedative, hypnotic or anti-convulsive effect” value [9] is given as “sedative and hypnotic effect”.
For `CCC1(c2ccccn2)CCC(=O)NC1=O` (stereo not shown) [drawing 11], the “IC50 Desmolase” value ([1]; 7 micromolar (14C) cholesterol) was “None” and the “IC50 Aromatase” value [8] was “None”.
